Measured values reported in patent US20250367302A1, “SMALL MOLECULE DRUG-OLIGONUCLEOTIDE CONJUGATE AND USE THEREOF” (SHANGHAI JIAO TONG UNIVERSITY, priority 2022, published 2025).
In the oligonucleotide strings, read from the 5' end, every base follows the letter of its sugar. An asterisk marks phosphorothioate; unmarked linkages are phosphodiester. Other units and linkages are bracketed, terminal groups are in braces. A string of capitals states the bases alone. d = 2'-deoxy (DNA); r = 2'-OH (RNA)

Legend:
NFKBIZ mRNA = NFKBIZ mRNA expression by RT-qPCR in LPS-stimulated HCECs; assay type: cell-based, human; settings: LPS-stimulated (100 ng/mL) HCECs, 10 μM ASO or siRNA, without transfection reagent, 6 h + 48 h
Method: HCECs were inoculated in a 6-well plate at a density of 1×10^5 cells/well and cultured until adherence. The cells were then stimulated with 100 ng/mL lipopolysaccharide (LPS) overnight. After removing the supernatant, 1 mL of Opti-MEM medium containing ASONFKBIZ-h, ASONFKBIZ-h+Lipofectamine2000 (Lipo2000), and CsA-ASONFKBIZ-h (all containing 10 µM ASO) were added, respectively. Cells without any treatment were used as a blank reference (Mock). After incubation at 37° C. for 6 h, the cells were transferred into DMEM medium and incubated for another 48 h. The cells were collected and RNA was extracted for RT-qPCR to analyze the expression level of the NFKBIZ mRNA in HCECs, and experimental results were shown in FIG. 9. The expression level of NFKBIZ mRNA in HCECs after LPS stimulation was about 1.3 times that of normal cells. […] After adding CsA-ASONFKBIZ-h for co-incubation, the expression of NFKBIZ mRNA was reduced to about 0.8 times that of normal cells.
(§1) HCECs were inoculated in a 6-well plate at a density of 1×10^5 cells/well and cultured until adherence. The cells were then stimulated with 100 ng/mL LPS overnight. After removing the supernatant, 1 mL of Opti-MEM medium containing ASONFKBIZ-h+Lipo2000 complex and 2CsA-ASONFKBIZ-h nanomicelles (all containing 10 µM ASO) were added, respectively. After incubation at 37° C. for 6 h, the cells were transferred into DMEM medium and incubated for another 48 h. The cells were collected and RNA was extracted for RT-qPCR to analyze the expression level of the NFKBIZ mRNA in HCECs, and experimental results were shown in FIG. 12.
as §1, with “ng/ml” for “ng/mL”, “3CsA-ASONFKBIZ-h” for “2CsA-ASONFKBIZ-h”, “15.” for “12.”
HCECs were inoculated in a 6-well plate at a density of 1×10^5 cells/well and cultured until adherence. The cells were then stimulated with 100 ng/mL LPS overnight. 1 mL of Opti-MEM medium containing ASONFKBIZ-h+Lipo2000 complex and CsA3-ASONFKBIZ-h nanomicelles (all containing 10 µM ASO) were added, respectively. After incubation at […]. 37° C. for 6 h, the cells were transferred into DMEM medium and incubated for another 48 h. After collected and RNA was extracted for RT-qPCR to evaluate the expression level of NFKBIZ mRNA in HCECs, and the experimental results were shown in FIG. 23.
HCECs were inoculated in a 6-well plate at a density of 1×10^5 cells/well and cultured overnight until adherence. The cells were then stimulated with 100 ng/ml LPS for 12 h. After removing the supernatant, 1 mL of Opti-MEM medium containing siRNANFKBIZ-h+Lipo2000 complex and nCsA-siRNANFKBIZ-h (n=1, 2, 3) conjugates and nanomicelles (all containing 10 μM siRNA) were added, respectively. After incubation at 37° C. for 6 h, the cells were transferred into DMEM medium and incubated for another 48 h. The cells were collected and RNA was extracted for RT-qPCR to evaluate the expression of NFKBIZ mRNA in HCECs, and experimental results were shown in FIG. 27. […]

[1] = test system: mice with xerophthalmia (0.2% benzalkonium chloride); test: Benzalkonium chloride xerophthalmia mouse model: sodium fluorescein staining and phenol red cotton thread tear test; assay type: in vivo, mouse (C57BL/6); settings: for phenol red cotton thread infiltration length (tear secretion) after 14 d of treatment / sodium fluorescein staining eye score after 14 d of treatment: eye drops 5 μL per eye twice daily, 400 μM CsA (10RAP: 400 μM rapamycin), day 14; for phenol red cotton thread infiltration length (tear secretion), day 0 (before treatment) / sodium fluorescein staining eye score, day 0 (before treatment): xerophthalmia mice, baseline of the treatment group
Method: The ocular xerophthalmia model was established in 6-8 weeks old mice (C57BL/6, Suzhou Xishan Biotechnology Co., Ltd.) with 0.2% benzalkonium chloride. 5 μL of 0.2% benzalkonium chloride was dripped into each eye of the mice, once in the morning and once in the evening every day, for two consecutive weeks. After successful modeling, the hospital-prepared CsA eye drops (400 µM CsA, referred to as hospital-prepared CsA eye drops or CsA eye drops, provided by the Eye, Ear, Nose and Throat Hospital Affiliated to Fudan University School of Medicine, Shanghai) and CsA-ASONFKBIZ-m (400 µM CsA) were used for eye drops treatment, 5 μL per eye, once in the morning and once in the evening. Sodium fluorescein staining and phenol red cotton thread tear secretion test were conducted on days 0, 7, and 14 of treatment to evaluate the therapeutic effect.
(§2) The ocular xerophthalmia model was established in 6-8 weeks old mice (C57BL/6, Suzhou Xishan Biotechnology Co., Ltd.) with 0.2% benzalkonium chloride. 5 μL of 0.2% benzalkonium chloride was dripped into each eye of the mice, once in the morning and once in the evening every day, for two consecutive weeks. After successful modeling, the hospital-prepared CsA eye drops (400 μM CsA, provided by the Eye, Ear, Nose and Throat Hospital Affiliated to Fudan University School of Medicine, Shanghai) and 2CsA-ASONFKBIZ-m (400 µM CsA) were used for eye drops treatment, 5 μL per eye, once in the morning and once in the evening. Sodium fluorescein staining and phenol red cotton thread tear secretion test were conducted on days 0, 7, and 14 of treatment to evaluate the therapeutic effect.
as §2, with “µM” for “μM”, “provided” for “provided by”, “3CsA-ASONFKBIZ-m nanomicelles (133 µM ASO concentration, 400” for “2CsA-ASONFKBIZ-m (400”
as §2, with “CsA3-ASONFKBIZ-m nanomicelles” for “2CsA-ASONFKBIZ-m”, “0” for “0, 7,”
The ocular xerophthalmia model was established in 6-8 weeks old mice (C57BL/6, Suzhou Xishan Biotechnology Co., Ltd.) using 0.2% benzalkonium chloride. 5 μL of 0.2% benzalkonium chloride was dripped into each eye of the mouse, once in the morning and once in the evening every day for two weeks. After successful modeling, the hospital-prepared CsA eye drops (400 µM CsA, provided by the Eye, Ear, Nose and Throat Hospital Affiliated to Fudan University School of Medicine, Shanghai) and CsA-siRNANFKBIZ-m (400 µM CsA), 2CsA-siRNANFKBIZ-m nanomicelles (400 µM CsA), 3CsA-siRNANFKBIZ-m nanomicelles (400 µM CsA) were used for eye drops treatment, 5 μL per eye, once in the morning and once in the evening. […]

Row | Substance | expression of NFKBIZ mRNA relative to normal cells (NFKBIZ mRNA) | phenol red cotton thread infiltration length (tear secretion) after 14 d of treatment [1] | sodium fluorescein staining eye score after 14 d of treatment [1] | phenol red cotton thread infiltration length (tear secretion), day 0 (before treatment) [1] | sodium fluorescein staining eye score, day 0 (before treatment) [1]
1 | 2CsA-ASONFKBIZ-h: two CsA molecules coupled to 2DBCO ASO targeting human NFKBIZ (SEQ ID 3), self-assembled (ATCAGACAACGAATCGGGCNTT; two CsA via DBCO click; modified_base 20 OTHER; n is t base modified with DBCO moiety) | about 0.8 times that of normal cells | – | – | – | –
2 | 3CsA-siRNANFKBIZ-m: three CsA coupled to sense strand of siRNA targeting mouse NFKBIZ (SEQ ID NO: 19/20) (sense GCGUCAAUGUACCAGUAUUUUNUNUU; antisense AAUACUGGUACAUUGACGCCU; three CsA on sense strand; modified_base 22 OTHER; n is t base modified with DBCO moiety; modified_base 24 OTHER) | – | about 2.5 mm | about 2 points | 1.5 mm | 6 points
3 | CsA-ASONFKBIZ-m: single cyclosporin A (CsA-N3) click-coupled to 3′-DBCO ASO targeting mouse NFKBIZ gene (SEQ ID NO: 2) (AATACTGGTACATTGACGCC; 3'-DBCO ASO click-conjugated to one cyclosporin A, sugar and linkages not given here, further chemistry not given here) | – | about 3.2 mm | about 3 points | 1.8 mm | 5.5 points
4 | 3CsA-ASONFKBIZ-m: three CsA molecules coupled to 3DBCO ASO targeting mouse NFKBIZ (SEQ ID 6), self-assembled (AATACTGGTACATTGACGCCNTNTT; three CsA via DBCO click; modified_base 21 OTHER; n is t base modified with DBCO moiety; modified_base 23 OTHER) | – | about 4 mm | about 4 points | 1.3 mm | 10 points
5 | CsA-siRNANFKBIZ-m: one CsA coupled to sense strand of siRNA targeting mouse NFKBIZ (SEQ ID NO: 15/16) (sense rGrCrGrUrCrArArUrGrUrArCrCrArGrUrArUrUdTdT; antisense rArArUrArCrUrGrGrUrArCrArUrUrGrArCrGrCdCdT; cyclosporin A clicked onto the sense 3' DBCO group, further chemistry not fully specified) | – | about 2.5 mm | about 3 points | 2 mm | 6 points
6 | 2CsA-ASONFKBIZ-m: two CsA molecules coupled to 2DBCO ASO targeting mouse NFKBIZ (SEQ ID 4), self-assembled (AATACTGGTACATTGACGCCNTT; two CsA via DBCO click; modified_base 21 OTHER; n is t base modified with DBCO moiety) | – | about 3.5 mm | about 3.5 points | 1.5 mm | 6 points
7 | 2CsA-siRNANFKBIZ-m: two CsA coupled to sense strand of siRNA targeting mouse NFKBIZ (SEQ ID NO: 17/18) (sense GCGUCAAUGUACCAGUAUUUUNUU; antisense AAUACUGGUACAUUGACGCCU; two CsA on sense strand; modified_base 22 OTHER; n is t base modified with DBCO moiety) | – | about 2.5 mm | about 2 points | 1.5 mm | 6 points
